Measured values: US20030187261A1, “Purine derivatives, process for their preparation and use thereof” (priority 2000, published 2003)

Experiments:
Type in all cases: cell-based, human
[1] = tested on: T-lymphocyte leukemia Molt3 cell line; assay: cell growth of Molt3 cell line, flow cytometric cell count; details: 96 hours of culture
Procedure: Cell lines: Human leukemic cell lines were obtained from the American Type Culture Collection (ATCC, Rockville, Md., USA). They were cultured in Iscove's Modified Dulbecco's Medium (IMDM) supplemented with 10% heat inactivated fetal calf serum (FCS), 200 U/ml penicillin, 200 μg/ml streptomycin and 1 μg/ml amphotericin B. Cells were cultured in a 5% CO2-95% air fully humidified incubator. For effects on clonogenic output, 1000 cells/well were plated in duplicate in methylcellulose (0.9%), supplemented with 20% FCS and cultured for 14 days.
Cells were plated at 10000 per well in 200 μl IMDM medium and incubated with 0-50 μM of the compounds of the invention (Table 5), by addition of the drugs directly to the culture medium and incubated at 37° C. for 96 hours. Absolute cell number was determined by addition of a known concentration of Fluoresbrite microspheres (FITC) (Polysciences, Inc.). The absolute number of cells per well was calculated as: {(total number of beads added per well)/(number of beads measured)}×(number of measured cells in the gate of interest). All analyses were performed with a FACScan (BD), using CELLQuest software (Becton Dickinson).
The response of the myeloid leukemia KG1 and T-lymphocyte leukemia Molt3 cell lines to the cytostatic effect of the novel compounds was determined using the above-mentioned standardized bead suspension that was used to determine the absolute cell number by flow cytometric (FCM) measurement. Cells were grown in the presence of increasing concentrations of the compounds of the invention.

KG1 cells = assay: apoptosis and cell cycle in KG1 cells (fluorescence microscopy, TUNEL); details: for speed of apoptosis induction (microscopic examination): KG1, 6-72 hours of exposure, FIG. 4; for apoptotic cells in G0-G1 phase versus control cells: KG1, TUNEL with EB, FIG. 6
Procedure: Nuclear morphology of the cells was analysed with the fluorochromes Hoechst 33342 (λEx max 346 nm; λEm max 460 nm) (Sigma) prepared in phosphate-buffered saline (PBS at 0.1 mg/ml, added to the culture medium at a final concentration of 2 μg/ml and ethidium bromide (EB) (λEx max 540 nm; λEm max 625 nm) (Sigma) prepared in PBS at 100 μg/ml and added to the culture medium at a final concentration of 2 μg/ml (Lizard, 1995). Hundred cells were counted for each sample and percentage of apoptosis was determined.
Control and novel compound-treated cell cultures were washed with PBS and fixed in […] (pH 7.4) for 15 minutes on ice. After washing in PBS, cells were permeabilized in 70% cold (−20° C.) ethanol and transferred to 4° C. for at least 1 hour. After rehydratation in PBS, cells were labeled with 50 μl/well TUNEL reaction mixture (Boehringer Mannheim). Cells were incubated in this solution at 37° C. for 40 minutes, washed in PBS and resuspended in 500 μl PBS containing 5 μg/ml EB and 0.1% RNAse. After 30 minutes of incubation at 4° C., green (FITC-dUTP) and red (EB-DNA) fluorescence of individual cells was measured on a FACscan flow cytometer (Gorczyca, 1993). Negative control (fixed and permeabilized cells incubated with 50 μl label solution per well without terminal transferase, instead of TUNEL reaction mixture) and positive control (fixed and permeabilized cells incubated with DNase I (100 μg/ml) that induces DNA strand breaks) were included in each experimental set-up.
Flow cytometric detection of apoptosis combined with DNA staining can identify apoptotic cells and simultaneously evaluate their position in the cell cycle. This technique was used to provide infomation about the possible cell cycle specific initiation of apoptosis by the tested compounds. If more than 2% of apoptotic cells were detected by the TUNEL method and the absolute number of acquired apoptotic events exceeded 2000, DNA content was simultaneously measured. Within the apoptotic population, analysis and calculation of the different cell cycle phases was carried out by an iterative curve fitting procedure (ModFit LT cell cycle analysis sofware from Verity software house, INC).
Viable, apoptotic, necrotic (=primary necrosis, not following apoptosis) and secondarily necrotic cells (=late apoptotis, evolving to necrosis) were scored differentially after 6, 12, 24, 48 and 72 hours of exposure to novel compounds. For the three products a different apoptosis-inducing pattern could be observed. Apoptosis induction occurs fast after incubation with P23 and P28 but slower after incubation with P27.
Flow cytometric detection of apoptosis and cell cycle analysis: The induction of apoptotic death of KG1 cells by the novel compounds was confirmed using the TUNEL reaction technique (FIG. 5). […] Incubation of KG1 cell line with P27 results in detectable apoptosis after 24 hours. Percentage of apoptotic cells in G0-G1 increases with time, while the number of apoptotic cells in S+G2/M phases decreases. […] After 6 and 12 hours of incubation the apoptotic population seems mainly to evolve from S phase.

[2] = tested on: adult bone marrow CD34+CD38- cells; assay: pre-CFU assay; details: 14 day liquid culture, total clonogenic output after secondary methylcellulose culture
Text: […]. Cells with low-to-medium forward and low side scatter, highly positive green (CD34) fluorescence, and an orange (CD38) fluorescence signal lower than the mean fluorescence of cells labeled with an irrelevant isotype-matched control antibody+2 standard deviations were retained as CD34^+CD38^− cells and used in pre-CFU assays.
Pre-CFU assays were initiated by performing liquid cultures of CD34^+CD38^− cells in duplicate in 96-well flat-bottomed plates in IMDM/10% FCS, 1% bovine serum albumin (BSA), 100 U/ml IL-1, 200 U/ml IL-6, 30 U/ml IL-3 and 100 ng/ml stem cell factor (SCF). Pre-CFU cultures were initiated with 500 CD34^+CD38^− cells/well (200 μl). After 14 days of culture at 37° C. in 7.5% O2 and 5% CO2 in a fully humidified incubator, the number of cells in each well was counted. Subsequently, the cells were harvested, washed three times in IMDM/10% FCS, and plated in duplicate at 500 cells/well (1000 μl) in secondary methylcellulose CFU cultures as described for CFU assays.
Pre-CFU were cultured starting from adult bone marrow CD34^+CD38^− cells, that had been isolated using the FCM cell sorter. Novel compounds were added at different concentrations to the primary 14 day liquid culture. IC50 was calculated from dose-response curves from total clonogenic output after secondary methylcellulose culture (Table 5).

| Molecule | IC50 [1] | time of incubation after which apoptosis was detected (TUNEL) (KG1 cells; KG1) | speed of apoptosis induction (microscopic examination) (KG1 cells) | apoptotic cells in G0-G1 phase versus control cells (KG1 cells) | IC50 [2] | IC50 ([1]; Homo sapiens, MOLT-3) | IC50 ([2]; Homo sapiens, 336 h) |
| --- | --- | --- | --- | --- | --- | --- | --- |
| 2-(3-aminoethylamino)-6-(3,3-dihydroxybenzyl)amino-9-isopropylpurine [P28] | 14 ± 1.8 µM | 6 h | fast | increase with time after 24 hours | 3.5 µM | – | – |
| CCCCCCNc1nc(NC(CO)c2ccccc2)c2ncn(C(C)C)c2n1 (stereo not drawn) [P23, 2-(hexylamino)-6-(1-phenyl-2-hydroxyethylamino)-9-isopropylpurine] | – | – | fast | no significant differences were detected | – | 16 ± 0.8 µM | > 25 µM |
